# Source: publication PMC11992225, “Antibacterial compounds against non-growing and intracellular bacteria” (npj Antimicrobials and Resistance, 2025)
# pIC50: −log10 of the molar value. Values joined by “and” are separate entries in the source; they are usually repeats but may differ in a detail not shown here. Identical values can stand only once.
# Tests used:
# [1] = test system: intracellular S. flexneri 5a M90T in TC7 cells; experiment: microbe, parasite or virus in culture; format: cell-based, Shigella flexneri
# [2] = test system: non-growing S. aureus DSM2569; experiment: Dose-dependent killing analysis (CFU spot-plating) of stationary-phase S. aureus; format: cell-based, Staphylococcus aureus; conditions: S. aureus, individual replicates
# How it was run: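 Survival was scored as CFU after overnight growth at 37 °C on LB agar, using spots from 10-fold PBS dilutions of treated cultures. Non-growing S. aureus DSM2569 had been exposed to compound for 24 h in 1:4 CA-MHB, pH 7.4. Three biological replicates were run.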
# non-growing UPEC CFT073 = experiment: Dose-dependent killing analysis (CFU spot-plating) of stationary-phase UPEC; format: cell-based, Escherichia coli; conditions: E. coli in 1:4 CA-MHB (pH 7.4), individual replicates
# How it was run: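 Killing assessed by CFU counts: overnight 37 °C LB agar spot plates (10 μl drops of 10-fold PBS dilutions) scored at the lowest dilution with distinct colonies. Samples were compound-treated non-growing UPEC CFT073, 200 μl per well. Performed as three biological replicates.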
# [3] = test system: non-growing P. aeruginosa DSM1117; experiment: Dose-dependent killing analysis (CFU spot-plating) of stationary-phase P. aeruginosa; format: cell-based, Pseudomonas aeruginosa; conditions: P. aeruginosa; for log10(CFU/ml) after treatment: individual replicates; for killing, average Δlog10(CFU/ml): vs CFU before treatment
# How it was run: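 Viability by CFU: samples serially diluted 10-fold in PBS, spotted on LB agar, grown overnight at 37 °C, and colonies counted at the lowest resolvable dilution. Non-growing P. aeruginosa DSM1117 had been dosed for 24 h in 1:4 CA-MHB (pH 7.4); three biological replicates.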
compound,measurement,setting,value
COc1c(N2C[C@@H]3CCCN[C@@H]3C2)c(F)cc2c(=O)c(C(=O)O)cn(C3CC3)c12 [Moxifloxacin],pIC50,"[1]; Shigella flexneri, TC7, 14 h",7.46
same,"Fluorescence intensity (RFU), Mean, 0.25 x MIC","[1]; TC7 cells infected with GFP-expressing S. flexneri, 14 h treatment, 0.25 x MIC",7400.12 RFU
same,"Fluorescence intensity (RFU), Mean, 0.5 x MIC","[1]; TC7 cells infected with GFP-expressing S. flexneri, 14 h treatment, 0.5 x MIC",5542.67 RFU
same,"Fluorescence intensity (RFU), Mean, 2 x MIC","[1]; TC7 cells infected with GFP-expressing S. flexneri, 14 h treatment, 2 x MIC",3672.56 RFU
same,"Fluorescence intensity (RFU), Mean, 4 x MIC","[1]; TC7 cells infected with GFP-expressing S. flexneri, 14 h treatment, 4 x MIC",2897.78 RFU
same,"Fluorescence intensity (RFU), Mean, 8 x MIC","[1]; TC7 cells infected with GFP-expressing S. flexneri, 14 h treatment, 8 x MIC",2156.25 RFU
same,"Fluorescence intensity (RFU), Mean, 16 x MIC","[1]; TC7 cells infected with GFP-expressing S. flexneri, 14 h treatment, 16 x MIC",1789.81 RFU
same,"Fluorescence intensity (RFU), Mean, 32 x MIC","[1]; TC7 cells infected with GFP-expressing S. flexneri, 14 h treatment, 32 x MIC",1608.56 RFU
same,"Fluorescence intensity (RFU), Mean, MIC","[1]; TC7 cells infected with GFP-expressing S. flexneri, 14 h treatment, MIC",3564.03 RFU
same,log10(CFU/ml) after treatment,[2]; concentration 0.1,8.934 log10(CFU/ml) and 9.196 log10(CFU/ml) and 8.708 log10(CFU/ml)
same,log10(CFU/ml) after treatment,[2]; concentration 0.5,8.748 log10(CFU/ml) and 9.004 log10(CFU/ml) and 8.204 log10(CFU/ml)
same,log10(CFU/ml) after treatment,[2]; concentration 2.5,8.505 log10(CFU/ml) and 8.431 log10(CFU/ml) and 8.167 log10(CFU/ml)
same,log10(CFU/ml) after treatment,[2]; concentration 10,8.158 log10(CFU/ml) and 8.021 log10(CFU/ml) and 7.519 log10(CFU/ml)
same,log10(CFU/ml) after treatment,non-growing UPEC CFT073; concentration 0.25,8.602 log10(CFU/ml) and 8.380 log10(CFU/ml) and 8.255 log10(CFU/ml)
same,log10(CFU/ml) after treatment,non-growing UPEC CFT073; concentration 0.5,8.041 log10(CFU/ml) and 7.903 log10(CFU/ml) and 7.699 log10(CFU/ml)
same,log10(CFU/ml) after treatment,non-growing UPEC CFT073; concentration 1,7.415 log10(CFU/ml) and 6.845 log10(CFU/ml) and 6.903 log10(CFU/ml)
same,log10(CFU/ml) after treatment,non-growing UPEC CFT073; concentration 2.5,5.954 log10(CFU/ml) and 5.230 log10(CFU/ml) and 5.380 log10(CFU/ml)
same,log10(CFU/ml) after treatment,non-growing UPEC CFT073; concentration 5,5.602 log10(CFU/ml) and 5.204 log10(CFU/ml) and 5.146 log10(CFU/ml)
same,log10(CFU/ml) after treatment,non-growing UPEC CFT073; concentration 10,6.114 log10(CFU/ml) and 4.903 log10(CFU/ml) and 5.000 log10(CFU/ml)
same,log10(CFU/ml) after treatment,[3]; concentration 0.1,8.699 log10(CFU/ml) and 8.778 log10(CFU/ml) and 8.477 log10(CFU/ml)
same,"killing, average Δlog10(CFU/ml)",[3]; concentration 0.1,0.236 log10(CFU/ml)
same,log10(CFU/ml) after treatment,[3]; concentration 0.5,8.301 log10(CFU/ml) and 7.778 log10(CFU/ml) (2×)
same,"killing, average Δlog10(CFU/ml)",[3]; concentration 0.5,0.935 log10(CFU/ml)
same,log10(CFU/ml) after treatment,[3]; concentration 2.5,5.845 log10(CFU/ml) and 6.301 log10(CFU/ml) and 4.699 log10(CFU/ml)
same,"killing, average Δlog10(CFU/ml)",[3]; concentration 2.5,3.272 log10(CFU/ml)
same,log10(CFU/ml) after treatment,[3]; concentration 10,=<4 log10(CFU/ml) (2×) and 4.477 log10(CFU/ml)
same,"killing, average Δlog10(CFU/ml)",[3]; concentration 10,4.728 log10(CFU/ml)
